Measurements reported in ChEMBL document CHEMBL1201861, “Genomics of Drug Sensitity in Cancer screening data, Wellcome Trust Sanger Institute”.

test system: MPP-89; assay: cells; assay type: functional, cell-based, Homo sapiens; settings: Homo sapiens, MPP-89;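 note: growth inhibition of human MPP-89 cells, read out with a cell viability assay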
Description: SANGER: Inhibition of human MPP-89 cell growth in a cell viability assay.

Row | Compound | IC50 [nM]
1 | NC(=O)c1cccc(-c2cc(Nc3ccc(OC(F)(F)F)cc3)ncn2)c1 | > 1280

test system: HOP-62; assay: cells; assay type: functional, cell-based, Homo sapiens; settings: Homo sapiens, HOP-62;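 note: cell growth inhibition determined with a viability assay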
Description: SANGER: Inhibition of human HOP-62 cell growth in a cell viability assay.

Row | Compound | IC50 [nM]
2 | NC(=O)c1cccc(-c2cc(Nc3ccc(OC(F)(F)F)cc3)ncn2)c1 | > 1280

test system: KGN; assay: cells; assay type: functional, cell-based, Homo sapiens; settings: Homo sapiens, KGN;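 note: growth inhibition of KGN cells, read out with a cell viability assay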
Description: SANGER: Inhibition of human KGN cell growth in a cell viability assay.

Row | Compound | IC50 [nM]
3 | NC(=O)c1cccc(-c2cc(Nc3ccc(OC(F)(F)F)cc3)ncn2)c1 | > 1280

test system: KS-1; assay: cells; assay type: functional, cell-based; settings: Homo sapiens;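 note: growth inhibition of KS-1 cells, read out with a cell viability assay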
Description: SANGER: Inhibition of human KS-1 cell growth in a cell viability assay.

Row | Compound | IC50 [nM]
4 | NC(=O)c1cccc(-c2cc(Nc3ccc(OC(F)(F)F)cc3)ncn2)c1 | > 1280

test system: TGBC24TKB; assay: cells; assay type: functional, cell-based; settings: Homo sapiens;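 note: growth inhibition of human TGBC24TKB cells, read out with a cell viability assay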
Description: SANGER: Inhibition of human TGBC24TKB cell growth in a cell viability assay.

Row | Compound | IC50 [nM]
5 | NC(=O)c1cccc(-c2cc(Nc3ccc(OC(F)(F)F)cc3)ncn2)c1 | > 1280

test system: TE-10; assay: cells; assay type: functional, cell-based, Homo sapiens; settings: Homo sapiens, TE-10;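 note: growth inhibition of TE-10 cells, measured by a cell viability assay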
Description: SANGER: Inhibition of human TE-10 cell growth in a cell viability assay.

Row | Compound | IC50 [nM]
6 | NC(=O)c1cccc(-c2cc(Nc3ccc(OC(F)(F)F)cc3)ncn2)c1 | > 1280

test system: COLO-684; assay: cells; assay type: functional, cell-based, Homo sapiens; settings: Homo sapiens, COLO-684
Description: SANGER: Inhibition of human COLO-684 cell growth in a cell viability assay.

Row | Compound | IC50 [nM]
7 | NC(=O)c1cccc(-c2cc(Nc3ccc(OC(F)(F)F)cc3)ncn2)c1 | > 1280

test system: MMAC-SF; assay: cells; assay type: functional, cell-based; settings: Homo sapiens;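 note: growth inhibition of human MMAC-SF cells, read out with a cell viability assay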
Description: SANGER: Inhibition of human MMAC-SF cell growth in a cell viability assay.

Row | Compound | IC50 [nM]
8 | NC(=O)c1cccc(-c2cc(Nc3ccc(OC(F)(F)F)cc3)ncn2)c1 | > 1280

test system: GI-1; assay: cells; assay type: functional, cell-based, Homo sapiens; settings: Homo sapiens, GI-1;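 note: growth inhibition of human GI-1 cells, measured with a cell viability readout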
Description: SANGER: Inhibition of human GI-1 cell growth in a cell viability assay.

Row | Compound | IC50 [nM]
9 | NC(=O)c1cccc(-c2cc(Nc3ccc(OC(F)(F)F)cc3)ncn2)c1 | > 1280

test system: BB49-HNC; assay: cells; assay type: functional, cell-based, Homo sapiens; settings: Homo sapiens, BB49-HNC;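 note: cell viability assay read-out, reported as inhibition of BB49-HNC cell growth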
Description: SANGER: Inhibition of human BB49-HNC cell growth in a cell viability assay.

Row | Compound | IC50 [nM]
10 | NC(=O)c1cccc(-c2cc(Nc3ccc(OC(F)(F)F)cc3)ncn2)c1 | > 1280

test system: MOLT-16; assay: cells; assay type: functional, cell-based, Homo sapiens; settings: Homo sapiens, MOLT-16;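 note: growth inhibition of human MOLT-16 cells, read out with a cell viability assay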
Description: SANGER: Inhibition of human MOLT-16 cell growth in a cell viability assay.

Row | Compound | IC50 [nM]
11 | NC(=O)c1cccc(-c2cc(Nc3ccc(OC(F)(F)F)cc3)ncn2)c1 | > 1280

test system: MZ2-MEL; assay: cells; assay type: functional, cell-based, Homo sapiens; settings: Homo sapiens, MZ2-MEL;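 note: growth inhibition of MZ2-MEL cells read out with a cell viability assay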
Description: SANGER: Inhibition of human MZ2-MEL cell growth in a cell viability assay.

Row | Compound | IC50 [nM]
12 | NC(=O)c1cccc(-c2cc(Nc3ccc(OC(F)(F)F)cc3)ncn2)c1 | > 1280

test system: OVCAR-4; assay: cells; assay type: functional, cell-based, Homo sapiens; settings: Homo sapiens, OVCAR-4;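 note: growth inhibition of human OVCAR-4 cells, measured with a cell viability assay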
Description: SANGER: Inhibition of human OVCAR-4 cell growth in a cell viability assay.

Row | Compound | IC50 [nM]
13 | NC(=O)c1cccc(-c2cc(Nc3ccc(OC(F)(F)F)cc3)ncn2)c1 | > 1280

test system: GI-ME-N; assay: cells; assay type: functional, cell-based, Homo sapiens; settings: Homo sapiens, GI-ME-N;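 note: growth inhibition of human GI-ME-N cells, read out with a cell viability assay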
Description: SANGER: Inhibition of human GI-ME-N cell growth in a cell viability assay.

Row | Compound | IC50 [nM]
14 | NC(=O)c1cccc(-c2cc(Nc3ccc(OC(F)(F)F)cc3)ncn2)c1 | > 1280

test system: NCI-H2126; assay: cells; assay type: functional, cell-based, Homo sapiens; settings: Homo sapiens, NCI-H2126;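 note: growth inhibition of the cancer cell line, determined with a cell viability readout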
Description: SANGER: Inhibition of human NCI-H2126 cell growth in a cell viability assay.

Row | Compound | IC50 [nM]
15 | NC(=O)c1cccc(-c2cc(Nc3ccc(OC(F)(F)F)cc3)ncn2)c1 | > 1280

test system: GT3TKB; assay: cells; assay type: functional, cell-based, Homo sapiens; settings: Homo sapiens, GT3TKB;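 note: growth inhibition of the cell line, read out with a cell viability assay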
Description: SANGER: Inhibition of human GT3TKB cell growth in a cell viability assay.

Row | Compound | IC50 [nM]
16 | NC(=O)c1cccc(-c2cc(Nc3ccc(OC(F)(F)F)cc3)ncn2)c1 | > 1280

test system: C2BBe1; assay: cells; assay type: functional, cell-based, Homo sapiens; settings: Homo sapiens, C2BBe1;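 note: growth inhibition of C2BBe1 cells, read out through a viability assay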
Description: SANGER: Inhibition of human C2BBe1 cell growth in a cell viability assay.

Row | Compound | IC50 [nM]
17 | NC(=O)c1cccc(-c2cc(Nc3ccc(OC(F)(F)F)cc3)ncn2)c1 | > 1280

test system: no-11; assay: cells; assay type: functional, cell-based, Homo sapiens; settings: Homo sapiens;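 note: growth inhibition of human NO-11 cells, read out with a cell viability assay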
Description: SANGER: Inhibition of human no-11 cell growth in a cell viability assay.

Row | Compound | IC50 [nM]
18 | NC(=O)c1cccc(-c2cc(Nc3ccc(OC(F)(F)F)cc3)ncn2)c1 | > 1280

test system: NB6; assay: cells; assay type: functional, cell-based, Homo sapiens; settings: Homo sapiens, NB6;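 note: growth inhibition of NB6 cells, read out by a cell viability assay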
Description: SANGER: Inhibition of human NB6 cell growth in a cell viability assay.

Row | Compound | IC50 [nM]
19 | NC(=O)c1cccc(-c2cc(Nc3ccc(OC(F)(F)F)cc3)ncn2)c1 | > 1280

test system: NCI-H747; assay: cells; assay type: functional, cell-based, Homo sapiens; settings: Homo sapiens, NCI-H747;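 note: growth inhibition of human NCI-H747 cells, read out by a cell viability assay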
Description: SANGER: Inhibition of human NCI-H747 cell growth in a cell viability assay.

Row | Compound | IC50 [nM]
20 | NC(=O)c1cccc(-c2cc(Nc3ccc(OC(F)(F)F)cc3)ncn2)c1 | > 1280

test system: NCI-H1395; assay: cells; assay type: functional, cell-based, Homo sapiens; settings: Homo sapiens, NCI-H1395;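 note: cell viability assay read-out quantifying reduced proliferation of human NCI-H1395 cells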
Description: SANGER: Inhibition of human NCI-H1395 cell growth in a cell viability assay.

Row | Compound | IC50 [nM]
21 | NC(=O)c1cccc(-c2cc(Nc3ccc(OC(F)(F)F)cc3)ncn2)c1 | > 1280

test system: BE-13; assay: cells; assay type: functional, cell-based, Homo sapiens; settings: Homo sapiens, BE-13;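 note: growth inhibition of human BE-13 cells, measured with a cell viability assay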
Description: SANGER: Inhibition of human BE-13 cell growth in a cell viability assay.

Row | Compound | IC50 [nM]
22 | NC(=O)c1cccc(-c2cc(Nc3ccc(OC(F)(F)F)cc3)ncn2)c1 | > 1280

test system: GB-1; assay: cells; assay type: functional, cell-based, Homo sapiens; settings: Homo sapiens, GB-1;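 note: growth of GB-1 cells judged by a viability assay, IC50 marks the concentration inhibiting growth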
Description: SANGER: Inhibition of human GB-1 cell growth in a cell viability assay.

Row | Compound | IC50 [nM]
23 | NC(=O)c1cccc(-c2cc(Nc3ccc(OC(F)(F)F)cc3)ncn2)c1 | > 1280

test system: RXF 393; assay: cells; assay type: functional, cell-based, Homo sapiens; settings: Homo sapiens, RXF 393;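 note: growth inhibition of human RXF 393 cells, read out with a cell viability assay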
Description: SANGER: Inhibition of human RXF393 cell growth in a cell viability assay.

Row | Compound | IC50 [nM]
24 | NC(=O)c1cccc(-c2cc(Nc3ccc(OC(F)(F)F)cc3)ncn2)c1 | > 1280

test system: LS-1034; assay: cells; assay type: functional, cell-based, Homo sapiens; settings: Homo sapiens, LS-1034
Description: SANGER: Inhibition of human LS-1034 cell growth in a cell viability assay.

Row | Compound | IC50 [nM]
25 | NC(=O)c1cccc(-c2cc(Nc3ccc(OC(F)(F)F)cc3)ncn2)c1 | > 1280

test system: COR-L88; assay: cells; assay type: functional, cell-based, Homo sapiens; settings: Homo sapiens, COR-L88;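 note: growth inhibition of COR-L88 cells, read out with a cell viability assay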
Description: SANGER: Inhibition of human COR-L88 cell growth in a cell viability assay.

Row | Compound | IC50 [nM]
26 | NC(=O)c1cccc(-c2cc(Nc3ccc(OC(F)(F)F)cc3)ncn2)c1 | > 1280

test system: DMS-114; assay: cells; assay type: functional, cell-based, Homo sapiens; settings: Homo sapiens, DMS-114

Row | Compound | IC50 [nM]
27 | NC(=O)c1cccc(-c2cc(Nc3ccc(OC(F)(F)F)cc3)ncn2)c1 | > 1280

test system: OCUB-M; assay: cells; assay type: functional, cell-based; settings: Homo sapiens;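 note: growth inhibition of the cancer cell line, read out through a cell viability assay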
Description: SANGER: Inhibition of human OCUB-M cell growth in a cell viability assay.

Row | Compound | IC50 [nM]
28 | NC(=O)c1cccc(-c2cc(Nc3ccc(OC(F)(F)F)cc3)ncn2)c1 | > 1280

test system: RCC10RGB; assay: cells; assay type: functional, cell-based, Homo sapiens; settings: Homo sapiens, RCC10RGB;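 note: growth inhibition of human RCC10RGB cells, read out by a cell viability assay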
Description: SANGER: Inhibition of human RCC10RGB cell growth in a cell viability assay.

Row | Compound | IC50 [nM]
29 | NC(=O)c1cccc(-c2cc(Nc3ccc(OC(F)(F)F)cc3)ncn2)c1 | > 1280

test system: ALL-PO; assay: cells; assay type: functional, cell-based, Homo sapiens; settings: Homo sapiens, ALL-PO;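 note: growth inhibition of ALL-PO cells, read out by a cell viability assay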
Description: SANGER: Inhibition of human ALL-PO cell growth in a cell viability assay.

Row | Compound | IC50 [nM]
30 | NC(=O)c1cccc(-c2cc(Nc3ccc(OC(F)(F)F)cc3)ncn2)c1 | > 1280

test system: KARPAS-45; assay: cells; assay type: functional, cell-based, Homo sapiens; settings: Homo sapiens, KARPAS-45;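 note: inhibition of cell line growth, read out through a viability assay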
Description: SANGER: Inhibition of human KARPAS-45 cell growth in a cell viability assay.

Row | Compound | IC50 [nM]
31 | NC(=O)c1cccc(-c2cc(Nc3ccc(OC(F)(F)F)cc3)ncn2)c1 | > 1280

test system: NB5; assay: cells; assay type: functional, cell-based, Homo sapiens; settings: Homo sapiens, NB5;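 note: growth inhibition of NB5 cells, read out as cell viability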
Description: SANGER: Inhibition of human NB5 cell growth in a cell viability assay.

Row | Compound | IC50 [nM]
32 | NC(=O)c1cccc(-c2cc(Nc3ccc(OC(F)(F)F)cc3)ncn2)c1 | > 1280

test system: VA-ES-BJ; assay: cells; assay type: functional, cell-based, Homo sapiens; settings: Homo sapiens, VA-ES-BJ;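 note: growth inhibition of the VA-ES-BJ cell line, read out by a cell viability assay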
Description: SANGER: Inhibition of human VA-ES-BJ cell growth in a cell viability assay.

Row | Compound | IC50 [nM]
33 | NC(=O)c1cccc(-c2cc(Nc3ccc(OC(F)(F)F)cc3)ncn2)c1 | > 1280

test system: DJM-1; assay: cells; assay type: functional, cell-based, Homo sapiens; settings: Homo sapiens, DJM-1;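 note: growth inhibition of human DJM-1 cells, read out by a cell viability assay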
Description: SANGER: Inhibition of human DJM-1 cell growth in a cell viability assay.

Row | Compound | IC50 [nM]
34 | NC(=O)c1cccc(-c2cc(Nc3ccc(OC(F)(F)F)cc3)ncn2)c1 | > 1280

test system: SH-4; assay: cells; assay type: functional, cell-based; settings: Homo sapiens;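 note: growth inhibition of SH-4 cells, read out with a cell viability assay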
Description: SANGER: Inhibition of human SH-4 cell growth in a cell viability assay.

Row | Compound | IC50 [nM]
35 | NC(=O)c1cccc(-c2cc(Nc3ccc(OC(F)(F)F)cc3)ncn2)c1 | > 1280

test system: Lu-65; assay: cells; assay type: functional, cell-based, Homo sapiens; settings: Homo sapiens, Lu-65;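 note: growth inhibition of Lu-65 cancer cells, read out by a cell viability assay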
Description: SANGER: Inhibition of human LU-65 cell growth in a cell viability assay.

Row | Compound | IC50 [nM]
36 | NC(=O)c1cccc(-c2cc(Nc3ccc(OC(F)(F)F)cc3)ncn2)c1 | > 1280

test system: SNU-C2B; assay: cells; assay type: functional, cell-based; settings: Homo sapiens;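 note: cell viability readout used to measure compound-driven suppression of SNU-C2B cell proliferation, IC50 marking half-maximal growth inhibition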
Description: SANGER: Inhibition of human SNU-C2B cell growth in a cell viability assay.

Row | Compound | IC50 [nM]
37 | NC(=O)c1cccc(-c2cc(Nc3ccc(OC(F)(F)F)cc3)ncn2)c1 | > 1280

test system: EW-16; assay: cells; assay type: functional, cell-based, Homo sapiens; settings: Homo sapiens, EW-16;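 note: growth inhibition of human EW-16 cells, read out as cell viability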
Description: SANGER: Inhibition of human EW-16 cell growth in a cell viability assay.

Row | Compound | IC50 [nM]
38 | NC(=O)c1cccc(-c2cc(Nc3ccc(OC(F)(F)F)cc3)ncn2)c1 | > 1280

test system: LAN-6; assay: cells; assay type: functional, cell-based, Homo sapiens; settings: Homo sapiens, LAN-6;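 note: growth inhibition of LAN-6 cells, determined with a cell viability assay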
Description: SANGER: Inhibition of human LAN-6 cell growth in a cell viability assay.

Row | Compound | IC50 [nM]
39 | NC(=O)c1cccc(-c2cc(Nc3ccc(OC(F)(F)F)cc3)ncn2)c1 | > 1280

test system: NCI-H1304; assay: cells; assay type: functional, cell-based, Homo sapiens; settings: Homo sapiens, NCI-H1304;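 note: growth inhibition of the cancer cell line, measured in a cell viability assay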
Description: SANGER: Inhibition of human NCI-H1304 cell growth in a cell viability assay.

Row | Compound | IC50 [nM]
40 | NC(=O)c1cccc(-c2cc(Nc3ccc(OC(F)(F)F)cc3)ncn2)c1 | > 1280

test system: MC116; assay: cells; assay type: functional, cell-based, Homo sapiens; settings: Homo sapiens, MC116;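 note: growth inhibition of MC116 cells, read out with a cell viability assay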
Description: SANGER: Inhibition of human MC116 cell growth in a cell viability assay.

Row | Compound | IC50 [nM]
41 | NC(=O)c1cccc(-c2cc(Nc3ccc(OC(F)(F)F)cc3)ncn2)c1 | > 1280

test system: KE-37; assay: cells; assay type: functional, cell-based, Homo sapiens; settings: Homo sapiens, KE-37;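 note: growth inhibition of KE-37 cells, read out with a cell viability assay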
Description: SANGER: Inhibition of human KE-37 cell growth in a cell viability assay.

Row | Compound | IC50 [nM]
42 | NC(=O)c1cccc(-c2cc(Nc3ccc(OC(F)(F)F)cc3)ncn2)c1 | > 1280

test system: NKM-1; assay: cells; assay type: functional, cell-based, Homo sapiens; settings: Homo sapiens, NKM-1;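 note: growth inhibition of NKM-1 cells, read out with a cell viability assay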
Description: SANGER: Inhibition of human NKM-1 cell growth in a cell viability assay.

Row | Compound | IC50 [nM]
43 | NC(=O)c1cccc(-c2cc(Nc3ccc(OC(F)(F)F)cc3)ncn2)c1 | > 1280

test system: HL-60; assay: cells; assay type: functional, cell-based, Homo sapiens; settings: Homo sapiens, HL-60;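 note: growth inhibition of human HL-60 cells, read out with a cell viability assay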
Description: SANGER: Inhibition of human HL-60 cell growth in a cell viability assay.

Row | Compound | IC50 [nM]
44 | NC(=O)c1cccc(-c2cc(Nc3ccc(OC(F)(F)F)cc3)ncn2)c1 | > 1280

test system: GR-ST; assay: cells; assay type: functional, cell-based, Homo sapiens; settings: Homo sapiens, GR-ST
Description: SANGER: Inhibition of human GR-ST cell growth in a cell viability assay.

Row | Compound | IC50 [nM]
45 | NC(=O)c1cccc(-c2cc(Nc3ccc(OC(F)(F)F)cc3)ncn2)c1 | > 1280

test system: SF-126; assay: cells; assay type: functional, cell-based, Homo sapiens; settings: Homo sapiens, SF-126;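 note: growth inhibition of human SF126 cells, read out with a cell viability assay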
Description: SANGER: Inhibition of human SF126 cell growth in a cell viability assay.

Row | Compound | IC50 [nM]
46 | NC(=O)c1cccc(-c2cc(Nc3ccc(OC(F)(F)F)cc3)ncn2)c1 | > 1280

test system: EW-11; assay: cells; assay type: functional, cell-based, Homo sapiens; settings: Homo sapiens, EW-11;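 note: growth inhibition of human EW-11 cells, measured with a cell viability assay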
Description: SANGER: Inhibition of human EW-11 cell growth in a cell viability assay.

Row | Compound | IC50 [nM]
47 | NC(=O)c1cccc(-c2cc(Nc3ccc(OC(F)(F)F)cc3)ncn2)c1 | > 1280

test system: SK-MEL-1; assay: cells; assay type: functional, cell-based, Homo sapiens; settings: Homo sapiens, SK-MEL-1;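 note: growth inhibition of human SK-MEL-1 cells, read out by a cell viability assay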
Description: SANGER: Inhibition of human SK-MEL-1 cell growth in a cell viability assay.

Row | Compound | IC50 [nM]
48 | NC(=O)c1cccc(-c2cc(Nc3ccc(OC(F)(F)F)cc3)ncn2)c1 | > 1280

test system: GOTO; assay: cells; assay type: functional, cell-based, Homo sapiens; settings: Homo sapiens, GOTO;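 note: growth inhibition of GOTO cells, read out by a cell viability assay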
Description: SANGER: Inhibition of human GOTO cell growth in a cell viability assay.

Row | Compound | IC50 [nM]
49 | NC(=O)c1cccc(-c2cc(Nc3ccc(OC(F)(F)F)cc3)ncn2)c1 | > 1280

test system: KLE; assay: cells; assay type: functional, cell-based; settings: Homo sapiens;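 note: growth inhibition of human KLE cells, read out with a cell viability assay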
Description: SANGER: Inhibition of human KLE cell growth in a cell viability assay.

Row | Compound | IC50 [nM]
50 | NC(=O)c1cccc(-c2cc(Nc3ccc(OC(F)(F)F)cc3)ncn2)c1 | > 1280

test system: LB771-HNC; assay: cells; assay type: functional, cell-based; settings: Homo sapiens;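 note: growth inhibition of LB771-HNC human cells, read out with a cell viability assay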
Description: SANGER: Inhibition of human LB771-HNC cell growth in a cell viability assay.

Row | Compound | IC50 [nM]
51 | NC(=O)c1cccc(-c2cc(Nc3ccc(OC(F)(F)F)cc3)ncn2)c1 | > 1280
